Reference: US20140235840A1, “NEW SYNTHESIS OF FUCOSE” (GLYCOM A/S, priority 2011, published 2014)

Key:
[1] = Partition studies between organic solvent and water; type: physicochemical; conditions: for Number of volumes of organic solvent: to reach at least 95% of recovery using one volume of organic solvent each time relative to one volume of aqueous solution; for solubility in organic solvents: as compared to aqueous solvents; for amount of compound from aqueous phase / amount of compound from organic phase: 197 mg (cyclohexylidene) or 150 mg (isopropylidene) partitioned
Procedure: 1,2-O-Cyclohexylidene-6-deoxy-β-L-talofuranose (197 mg) was partitioned between water (10 mL) and methylene chloride (10 mL), layers separated and the residual amount of solutions in the separatory funnel were partitioned with extra amount of water (5 mL) and methylene chloride (5 mL). The combined organic phases were evaporated and dried in vacuo (50° C., <1 mbar, 1 hour) to give 140 mg of the title compound. The aqueous solution gave 53 mg after lyophilisation and drying in vacuo (50° C., <1 mbar, 2 hrs). Using the same procedure, partition between ethyl acetate and water provided 127 mg of the title compound from ethyl acetate phase and 70 mg from the aqueous phase.
Analogously, 1,2-O-isopropylidene-6-deoxy-β-L-talofuranose (150 mg) was partitioned between methylene chloride (24 mg) and aqueous phase (126 mg). Partition between ethyl acetate and water furnished 7 mg and 143 mg of the title compound, respectively.

[2] = shake-flask partition; gravimetric recovery from each phase; conditions: not told
[3] = conclusion in words from partition results
[4] = solvent system ethyl acetate-water

C[C@H](O)[C@H]1O[C@@H]2OC3(CCCCC3)O[C@@H]2[C@@H]1O [1,2-O-Cyclohexylidene-6-deoxy-β-L-talofuranose]
Number of volumes of organic solvent ([1]; CH2Cl2-water): 3 | affinity to organic solvents versus aqueous media [1, 3]: higher affinity to organic solvents as compared to aqueous media | solubility in organic solvents [1, 3]: much higher solubility | amount of compound from aqueous phase ([1]; ethyl acetate-water): 70 mg | amount of compound from organic phase ([1]; ethyl acetate-water): 127 mg | Number of volumes of organic solvent ([1]; ethyl acetate-water): 3 | amount of compound from aqueous phase ([1]; methylene chloride-water): 53 mg | amount of compound from organic phase ([1]; methylene chloride-water): 140 mg | Partition P (=[C]org/[C]aq) ([1]; solvent system CH2Cl2-water): 2.64 | logP ([1]; solvent system CH2Cl2-water): 0.42 | Partition P (=[C]org/[C]aq) [1, 4]: 1.81 | logP [1, 4]: 0.26

C[C@H](O)[C@H]1O[C@@H]2OC(C)(C)O[C@@H]2[C@@H]1O [1,2-O-isopropylidene-6-deoxy-β-L-talofuranose]
Number of volumes of organic solvent ([1]; CH2Cl2-water): 18 | affinity to organic solvents versus aqueous media [1, 3]: higher affinity to aqueous medium | solubility in aqueous solutions [1, 3]: highly soluble | solubility in organic solvents [1, 3]: almost insoluble | amount of compound from aqueous phase ([1]; ethyl acetate-water): 143 mg | amount of compound from organic phase ([1]; ethyl acetate-water): 7 mg | Number of volumes of organic solvent ([1]; ethyl acetate-water): 21 | amount of compound from aqueous phase ([1]; methylene chloride-water): 126 mg | amount of compound from organic phase ([1]; methylene chloride-water): 24 mg | Partition P (=[C]org/[C]aq) ([1]; solvent system CH2Cl2-water): 0.19 | Partition P (=[C]org/[C]aq) [1, 4]: 0.16 | log partition ethyl acetate / water [2]: 0.16 concentration ratio (mass-based) | log partition methylene chloride (CH2Cl2) / water [2]: 0.19 concentration ratio (mass-based)
